# ChEMBL document CHEMBL1143783, “In vitro biotransformations of the prostaglandin D2 (DP) antagonist MK-0524 and synthesis of metabolites” (Bioorg Med Chem Lett, 2007)
# Test system: Plasma
# Assay: Stability in rat plasma
# Assay type: ADME, cell-free
row,Stability,SMILES
1,< 5%,CS(=O)(=O)c1cc(F)cc2c3c(n(Cc4ccc(Cl)cc4)c12)[C@@H](CC(=O)O)C[C@H]3O
2,< 5%,CS(=O)(=O)c1cc(F)cc2c3c(n(Cc4ccc(Cl)cc4)c12)[C@@H](CC(=O)O)C[C@@H]3O
